According to US10420748B2, “Methods of treatment associated with the granulocyte colony-stimulating factor receptor” (LIGAND PHARMACEUTICALS INCORPORATED, priority 2013, dated 2019):

What was measured:
Kasumi-1 cells = assay: Cell growth inhibition (ATPlite), Kasumi-1; type: cell-based; conditions: Homo sapiens, Kasumi-1, 72 hours, mean±SEM, n = 3, read-out: Inhibition of Tumor Cell Growth (IC50, μM) Kasumi-1
Protocol: (§1) The human acute promyelocytic leukemia cell line HL-60, the acute myeloid leukemia cell line Kasumi-1, the lung carcinoma cell line A549, the embryonic kidney cell line HEK293, and the hepatocellular carcinoma cell line HepG2 were purchased from ATCC. HL-60 and A549 cells were grown in RPMI-1640 media containing 10% fetal bovine serum (FBS). Kasumi-1 cells were grown in RPMI-1640 media containing 20% FBS. HEK293 and HepG2 cells were grown in Eagles Minimal Essential Media containing 10% FBS. Cells were plated in 96-well microtiter plates at a density of either 2000 cells/well (A549 cells) or 5000 cells/well and incubated overnight at 37° C. Cell growth was measured by the ATPlite™ istep Kit (PerkinElmer, Waltham, Mass.) according to the manufacturer's instructions. ATPlite™ uses firefly luciferase to indirectly quantify the level of adenosine triphosphate (ATP) as a measure of proliferation and cytotoxicity of cultured mammalian cells. Compounds were diluted in the appropriate cell culture media for each cell type at incremental concentrations ranging from 0.1 nM to 100 tiM. […] Luminescence, quantified as relative luciferase units (RLU), was measured on an Envision plate reader (PerkinElmer). For each replicate, the mean and standard deviation of the RLU at each concentration of compound was calculated. […]

HL-60 cells [1] = assay: Induction of apoptosis (Annexin V/Sytox Red, FACS); type: cell-based, human; conditions: HL-60, 10 μM, 48 hours, versus vehicle (DMSO), FIG. 2
Protocol: HL-60 cells were incubated under similar conditions to the cell growth assay described above (i.e. 50,000 cell/well of a 24-well plate, incubated in cell culture media in the presence of vehicle or compound for 48 hours at 37° C. in an incubator with 5% CO2). Apoptosis was determined by using Annexin V/Sytox Red staining (Life Technologies/Invitrogen) followed by assaying with fluorescence-activated cell sorting (FACS) according to standard protocols. In this assay, vehicle constituted DMSO and the test compound (Compound 101) was diluted to 10 μM with cell culture media from a 10 mM stock solution of Compound 101 in DMSO. The results of the apoptosis assay are described in FIG. 2. […] Compound 101 decreased the number of viable cells in the assay by over 60% and produced nearly a 50% increase in necrotic cells and over a 15% increase in apoptotic cells.

HEK293 cells = assay: Cell growth inhibition (ATPlite), HEK293; type: cell-based; conditions: Homo sapiens, HEK293, 72 hours, mean±SEM, n = 3, read-out: Inhibition of Tumor Cell Growth (IC50, μM) HEK293
Protocol: as §1

A549 cells = assay: Cell growth inhibition (ATPlite), A549; type: cell-based; conditions: Homo sapiens, A549, 72 hours, mean±SEM, n = 3, read-out: Inhibition of Tumor Cell Growth (IC50, μM) A549
Protocol: as §1

HEPG2 cells = assay: Cell growth inhibition (ATPlite), HEPG2; type: cell-based; conditions: Homo sapiens, HEPG2, 72 hours, mean±SEM, n = 3, read-out: Inhibition of Tumor Cell Growth (IC50, μM) HEPG2
Protocol: as §1

HL-60 cells [2] = assay: Cell growth inhibition (ATPlite), HL-60; type: cell-based, human; conditions: HL-60, 72 hours
Protocol: as §1, with “cells.” for “cells. Compounds were diluted in the appropriate cell culture media for each cell type at incremental concentrations ranging from 0.1 nM to 100 tiM.”
HL-60 cells were plated in 96-well microtiter plates in RPMI-1640 media containing 10% FBS at a density of 5000 cells/well. […] Cell growth was measured using the ATPlite™ istep Kit. […]

Cynomolgus monkeys = assay: Blood cell induction (peripheral blood neutrophils); type: in vivo
Protocol: Test compound was evaluated in an animal model for the ability to increase blood cell count, and particularly peripheral blood neutrophils, according to the following protocol. A test compound (Compound 101) was formulated in DMSO:PEG400:PBS at a concentration of 2 mg/mL. Cynomolgus monkeys where then dosed with either vehicle or the test compound via an IV injection for three days. Doses were administered in the morning and then at 5, and 10 hours later. On Day four, a single dose was administered. Blood samples were then collected at the start of the experiment, at Day 4 at 3 hours, 6 hours, and 9 hours after the single dose, and at Day 7. Blood samples were collected and analyzed on a commercial hematology system (ADVIA 2120). The results for neutrophil evaluation are graphically represented in FIG. 3 for both vehicle and Compound 101.

`Cc1cc(C)cc(N2C(=O)/C(=C(\NNC(=O)CCC(N)=O)c3ccccc3)c3ccc(C(F)(F)F)cc32)c1` [Compound 101] was tested, and the IC50 (Kasumi-1 cells) was 12.1 ± 2.4 µM, the “increase in apoptotic cells” value (HL-60 cells [1]) was greater than 15% and the “increase in necrotic cells” value (HL-60 cells [1]) was roughly 50%. For the same molecule, the cytotoxicity at 10 µM (HL-60 cells [1]; Homo sapiens, read-out: decrease in number of viable cells) was greater than 60%, the IC50 (HEK293 cells) was 1.4 ± 0.04 µM and the IC50 (A549 cells) was 6.1 ± 2.5 µM. For the same molecule, the IC50 (HEPG2 cells) was 0.9 ± 0.1 µM, the “effect on HL-60 cell growth (dose response curve, FIG. 1)” value (HL-60 cells [2]; versus Blank) was “dose-dependent effect” and the IC50 (HL-60 cells [2]; Homo sapiens, mean±SEM, n = 5, read-out: Inhibition of Tumor Cell Growth (IC50, μM) HL-60) was 5 ± 2.8 µM. For the same molecule, the “neutrophil count following three days without dosing” value (Cynomolgus monkeys; Day 7 time point) was “returned to a level similar to the vehicle”, the “significance of neutrophil count increase versus vehicle” value (Cynomolgus monkeys; IV, Day 4, 9 hours after the single dose) was “statistically significant” and the “neutrophil count versus vehicle after the three day dosing phase” value (Cynomolgus monkeys; IV, three doses daily for three days, single dose Day 4, Day 4 samples, FIG. 3) was “higher neutrophil count than vehicle”.
